Measurements taken from patent US20230201174A1, “COMBINATION OF FINERENONE AND A SGLT2 INHIBITOR FOR THE TREATMENT AND/OR PREVENTION OF CARDIOVASCULAR AND/OR RENAL DISEASES” (BAYER AKTIENGESELLSCHAFT, priority 2020, published 2023).

What was measured:
[1] = test system: Wistar rats with activated renin-angiotensin-aldosterone system; assay: In vivo assay for detecting natriuretic activity in conscious rats with activated RAAS; parameters: species or system rat; conditions: for Urinary Glucose concentration / Urinary K+ concentration / Urinary Na+ concentration / Urinary Volume/ body weight: Table 4, 24 h urine, mean ± SEM
Procedure: Wistar rats (ca. 250-500 g body weight) were kept with free access to feed (Altromin) and drinking water. […] This sodium-reduced feed causes an activation of the RAAS in the animals during the 3 days run-in phase and therefore mimics a neuroendocrine activation which is characteristic for cardiorenal diseases. […] At the start of the test, the substance to be tested was administered by means of gavage in a volume of 2-3 ml/kg of body weight of a suitable solvent PEG400). Control animals received only solvent (‘S’ or solvent in table 2 below). Controls and substance tests were carried out in parallel on the same day. Control groups and substance-dose groups each consisted of 6 to 10 animals. During the test, the urine excreted by the animals was continuously collected in a receiver on the base of the cage.
In this comparison, eight different administrations were performed (cf. groups A to H):
Group A received the solvent (PEG400) only. This group serves as control group.
Groups B, C and D received three increasing dosages of empagliflozin (SGLT2 inhibitor) only. It serves to detect the effects of the monotherapy with SGLT2 inhibitor.
Group E received a finerenone only. It serves to detect the effect of the monotherapy with finerenone.
Groups F, G and H received finerenone and the three doses of SGLT2 inhibitor in combination, respectively. It serves to detect the effect of the combined therapy with finerenone and empagliflozin (SGLT2 inhibitor) (combination according to the invention).
After the treatment, the urinary volume, urinary glucose, urinary sodium and potassium concentrations were measured.

[2] = tended to increase on day 1 after administration; cited from earlier work
[3] = Table 4 study, monotherapy 10 mg/kg
[4] = Table 4 study, monotherapy: canagliflozin 1 and 3 mg/kg, finerenone 1 mg/kg

Cc1ccc([C@@H]2O[C@H](CO)[C@@H](O)[C@H](O)[C@H]2O)cc1Cc1ccc(-c2ccc(F)cc2)s1 [canagliflozin, (2S,3R,4R,5S,6R)-2-(3-{[5-(4-fluorophenyl)thiophen-2-yl]methyl}-4-methylphenyl)-6-(hydroxymethyl)oxane-3,4,5-triol]
Urinary Glucose concentration ([1]; monotherapy 1 mg/kg oral): 2.76 ± 0.36 mmol
Urinary K+ concentration ([1]; monotherapy 1 mg/kg oral): 1.86 ± 0.11 mmol
Urinary Na+ concentration ([1]; monotherapy 1 mg/kg oral): 0.15 ± 0.03 mmol
Urinary Volume/ body weight ([1]; monotherapy 1 mg/kg oral): 31.08 ± 3.17 mL/kg
Urinary Glucose concentration ([1]; monotherapy 3 mg/kg oral): 6.94 ± 0.44 mmol
Urinary K+ concentration ([1]; monotherapy 3 mg/kg oral): 2.40 ± 0.17 mmol
Urinary Na+ concentration ([1]; monotherapy 3 mg/kg oral): 0.21 ± 0.05 mmol
Urinary Volume/ body weight ([1]; monotherapy 3 mg/kg oral): 40.49 ± 2.43 mL/kg
Urinary Glucose concentration ([1]; monotherapy 10 mg/kg oral): 9.99 ± 0.46 mmol
Urinary K+ concentration ([1]; monotherapy 10 mg/kg oral): 2.36 ± 0.15 mmol
Urinary Na+ concentration ([1]; monotherapy 10 mg/kg oral): 0.41 ± 0.08 mmol
Urinary Volume/ body weight ([1]; monotherapy 10 mg/kg oral): 55.83 ± 3.52 mL/kg
influence on urinary sodium, in words [1, 3]: increase
influence on urinary volume, in words [1, 3]: increase
influence on urinary potassium, in words [1, 4]: no influence
influence on urinary sodium, in words [1, 4]: no influence
influence on urinary volume, in words [1, 4]: no influence
influence on urinary glucose, in words ([1]; Table 4 study, monotherapy: canagliflozin all doses (1, 3, 10 mg/kg), finerenone 1 mg/kg): strong increase
urinary Na+ excretion, in words [2]: returned to baseline from day 2 to 5
